Measurements from PubChem BioAssay AID1963847 (Molecular Pharmacology Branch, DTP, NCI, 2024).

System: 415267-285-R-J2-PDC complex spheroid viability
Assay: Anticancer human tumor 415267-285-R-J2-PDC patient-derived breast carcinoma cell line growth inhibition [POLQ]
Conditions: for IC50: curve of first compound; for viability, T/C: stronger effect = lower value
Method in brief: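 Three-cell-type spheroids modelling solid tumor plus stroma served as the readout system; POL inhibitors were tested individually and in combination, concentration ranges set by clinical Cmax where known.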

[1] = second compound 0.0316 µM, first compound 0.0316 µM
[2] = second compound 0.0316 µM, first compound 0.1 µM
[3] = second compound 0.0316 µM, first compound 0.316 µM
[4] = second compound 0.0316 µM, first compound 1 µM
[5] = second compound 0.0316 µM, first compound 3.16 µM
[6] = second compound 0.0316 µM, first compound 10 µM
[7] = second compound 0.1 µM, first compound 0.0316 µM
[8] = second compound 0.1 µM, first compound 0.1 µM
[9] = second compound 0.1 µM, first compound 0.316 µM
[10] = second compound 0.1 µM, first compound 1 µM
[11] = second compound 0.1 µM, first compound 3.16 µM
[12] = second compound 0.1 µM, first compound 10 µM
[13] = second compound 0.316 µM, first compound 0.0316 µM
[14] = second compound 0.316 µM, first compound 0.1 µM
[15] = second compound 0.316 µM, first compound 0.316 µM
[16] = second compound 0.316 µM, first compound 1 µM
[17] = second compound 0.316 µM, first compound 3.16 µM
[18] = second compound 0.316 µM, first compound 10 µM
[19] = second compound 1 µM, first compound 0.0316 µM
[20] = second compound 1 µM, first compound 0.1 µM
[21] = second compound 1 µM, first compound 0.316 µM
[22] = second compound 1 µM, first compound 1 µM
[23] = second compound 1 µM, first compound 3.16 µM
[24] = second compound 1 µM, first compound 10 µM
[25] = second compound 3.16 µM, first compound 0.0316 µM
[26] = second compound 3.16 µM, first compound 0.1 µM
[27] = second compound 3.16 µM, first compound 0.316 µM
[28] = second compound 3.16 µM, first compound 1 µM
[29] = second compound 3.16 µM, first compound 3.16 µM
[30] = second compound 3.16 µM, first compound 10 µM
[31] = second compound 10 µM, first compound 0.0316 µM
[32] = second compound 10 µM, first compound 0.1 µM
[33] = second compound 10 µM, first compound 0.316 µM
[34] = second compound 10 µM, first compound 1 µM
[35] = second compound 10 µM, first compound 3.16 µM
[36] = second compound 10 µM, first compound 10 µM
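Note: spheroids exposed to compounds for one week before readout.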
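Throughout, for viability, T/C: luminescence used as stand-in measure of viable cells; 100% = DMSO vehicle control viability.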

## CC1COCCN1c1cc(C2(S(C)(=N)=O)CC2)nc(-c2ccnc3[nH]ccc23)n1 (stereo unspecified) + Nc1ccc(C#CCN(C(=O)Cc2ncc(C(F)(F)F)cc2C(F)(F)F)c2ccc(F)cc2)nn1
Second compound 0.0316 µM
  IC50: 541 nM
Second compound 0.1 µM
  IC50: 514 nM
Second compound 0.316 µM
  IC50: 592 nM
Second compound 1 µM
  IC50: 537 nM
Second compound 3.16 µM
  IC50: 559 nM
Second compound 10 µM
  IC50: 527 nM
[1]
  viability, T/C: 106%
[2]
  viability, T/C: 113%
[3]
  viability, T/C: 81.3%
[4]
  viability, T/C: 14.2%
[5]
  viability, T/C: 5.34%
[6]
  viability, T/C: 3.83%
[7]
  viability, T/C: 94.3%
[8]
  viability, T/C: 108%
[9]
  viability, T/C: 75%
[10]
  viability, T/C: 15.4%
[11]
  viability, T/C: 5.4%
[12]
  viability, T/C: 3.91%
[13]
  viability, T/C: 104%
[14]
  viability, T/C: 101%
[15]
  viability, T/C: 92.6%
[16]
  viability, T/C: 14.3%
[17]
  viability, T/C: 5.2%
[18]
  viability, T/C: 3.58%
[19]
  viability, T/C: 104%
[20]
  viability, T/C: 95%
[21]
  viability, T/C: 81.9%
[22]
  viability, T/C: 12.5%
[23]
  viability, T/C: 6.5%
[24]
  viability, T/C: 2.93%
[25]
  viability, T/C: 102%
[26]
  viability, T/C: 104%
[27]
  viability, T/C: 87.3%
[28]
  viability, T/C: 12%
[29]
  viability, T/C: 5.15%
[30]
  viability, T/C: 4.26%
[31]
  viability, T/C: 111%
[32]
  viability, T/C: 91.2%
[33]
  viability, T/C: 80.8%
[34]
  viability, T/C: 11.4%
[35]
  viability, T/C: 5.02%
[36]
  viability, T/C: 4.34%

## O=C(Nc1ccc(O)c(NS(=O)(=O)c2ccc(F)cc2)c1)c1ccc(-c2ccccc2)cc1 + COC1C(OC(N)=O)C(O)C(Oc2ccc3c(O)c(NC(=O)c4ccc(O)c(CC=C(C)C)c4)c(=O)oc3c2C)OC1(C)C
Second compound 0.0316 µM
  IC50: 8510 nM
Second compound 0.1 µM
  IC50: 8850 nM
Second compound 0.316 µM
  IC50: 8800 nM
Second compound 1 µM
  IC50: 8540 nM
Second compound 3.16 µM
  IC50: 8170 nM
Second compound 10 µM
  IC50: > 10000 nM
[1]
  viability, T/C: 97.7%
[2]
  viability, T/C: 93%
[3]
  viability, T/C: 94.8%
[4]
  viability, T/C: 95.8%
[5]
  viability, T/C: 93.6%
[6]
  viability, T/C: 42.9%
[7]
  viability, T/C: 95.8%
[8]
  viability, T/C: 101%
[9]
  viability, T/C: 87.6%
[10]
  viability, T/C: 114%
[11]
  viability, T/C: 94.6%
[12]
  viability, T/C: 44.3%
[13]
  viability, T/C: 110%
[14]
  viability, T/C: 99.2%
[15]
  viability, T/C: 98.9%
[16]
  viability, T/C: 117%
[17]
  viability, T/C: 94.3%
[18]
  viability, T/C: 44.4%
[19]
  viability, T/C: 90.6%
[20]
  viability, T/C: 108%
[21]
  viability, T/C: 95.7%
[22]
  viability, T/C: 104%
[23]
  viability, T/C: 93.3%
[24]
  viability, T/C: 42.9%
[25]
  viability, T/C: 103%
[26]
  viability, T/C: 105%
[27]
  viability, T/C: 119%
[28]
  viability, T/C: 113%
[29]
  viability, T/C: 94.4%
[30]
  viability, T/C: 40.5%
[31]
  viability, T/C: 118%
[32]
  viability, T/C: 110%
[33]
  viability, T/C: 103%
[34]
  viability, T/C: 98.5%
[35]
  viability, T/C: 92.5%
[36]
  viability, T/C: 48.5%

## CCc1c2c(nc3ccc(O)cc13)-c1cc3c(c(=O)n1C2)COC(=O)[C@]3(O)CC + Cc1cccc(N(C)C(=O)C2C(O)CCN2c2nc(C)cc(C(F)(F)F)c2C#N)c1
Second compound 0.0316 µM
  IC50: < 3.16 nM
Second compound 0.1 µM
  IC50: < 3.16 nM
Second compound 0.316 µM
  IC50: < 3.16 nM
Second compound 1 µM
  IC50: < 3.16 nM
Second compound 3.16 µM
  IC50: < 3.16 nM
Second compound 10 µM
  IC50: < 3.16 nM
Second compound 0.0316 µM, first compound 0.00316 µM
  viability, T/C: 27.1%
Second compound 0.0316 µM, first compound 0.01 µM
  viability, T/C: 11.3%
[1]
  viability, T/C: 5.73%
[2]
  viability, T/C: 3.97%
[3]
  viability, T/C: 3.18%
[4]
  viability, T/C: 1.44%
Second compound 0.1 µM, first compound 0.00316 µM
  viability, T/C: 26.4%
Second compound 0.1 µM, first compound 0.01 µM
  viability, T/C: 10%
[7]
  viability, T/C: 5.47%
[8]
  viability, T/C: 4.21%
[9]
  viability, T/C: 3.59%
[10]
  viability, T/C: 1.35%
Second compound 0.316 µM, first compound 0.00316 µM
  viability, T/C: 32.5%
Second compound 0.316 µM, first compound 0.01 µM
  viability, T/C: 11.6%
[13]
  viability, T/C: 5.27%
[14]
  viability, T/C: 3.49%
[15]
  viability, T/C: 3.51%
[16]
  viability, T/C: 1.32%
Second compound 1 µM, first compound 0.00316 µM
  viability, T/C: 34%
Second compound 1 µM, first compound 0.01 µM
  viability, T/C: 9.41%
[19]
  viability, T/C: 6.43%
[20]
  viability, T/C: 4.75%
[21]
  viability, T/C: 3.42%
[22]
  viability, T/C: 0.75%
Second compound 3.16 µM, first compound 0.00316 µM
  viability, T/C: 34.7%
Second compound 3.16 µM, first compound 0.01 µM
  viability, T/C: 8.16%
[25]
  viability, T/C: 6.7%
[26]
  viability, T/C: 4.46%
[27]
  viability, T/C: 4.26%
[28]
  viability, T/C: 1.28%
Second compound 10 µM, first compound 0.00316 µM
  viability, T/C: 29.4%
Second compound 10 µM, first compound 0.01 µM
  viability, T/C: 10.3%
[31]
  viability, T/C: 6.91%
[32]
  viability, T/C: 3.72%
[33]
  viability, T/C: 3.54%
[34]
  viability, T/C: 1.1%
